Consider one compound from patent US6706716B2, “Compounds specific for the human α1d adrenergic receptor and uses thereof” (Synaptic Pharmaceutical Corporation, priority 1998, dated 2004).

The structures appear in SMILES notation. Entries after “also recorded” stand apart in the source; their conditions may differ.

Experiment [1] deals with urethane-anesthetized rats. Put plainly: Blood pressure in urethane-anesthetized, normotensive rats. Format: in vivo, rat. On the procedure: Rats were anesthetized with urethane and PE50 cannulae were placed in the femoral artery and vein for blood pressure monitoring and drug administration, respectively. After stabilization, rats were administered 200 μl saline vehicle or increasing doses of BMY 7378 or Compound 7 at 10 minutes intervals until the reduction in blood pressure reached a plateau. The 5-HT1A-selective antagonist WAY 100635 (1 mg/kg) was then administered and blood pressure monitored for an additional 10 minutes.

For the next experiment, the target named is T1, α1A adrenoceptor (Rattus norvegicus, UniProt P43140).
T1 construct: from tissue; host or cells: rat epididymal vas deferens
T1 sequence (P43140 1-466): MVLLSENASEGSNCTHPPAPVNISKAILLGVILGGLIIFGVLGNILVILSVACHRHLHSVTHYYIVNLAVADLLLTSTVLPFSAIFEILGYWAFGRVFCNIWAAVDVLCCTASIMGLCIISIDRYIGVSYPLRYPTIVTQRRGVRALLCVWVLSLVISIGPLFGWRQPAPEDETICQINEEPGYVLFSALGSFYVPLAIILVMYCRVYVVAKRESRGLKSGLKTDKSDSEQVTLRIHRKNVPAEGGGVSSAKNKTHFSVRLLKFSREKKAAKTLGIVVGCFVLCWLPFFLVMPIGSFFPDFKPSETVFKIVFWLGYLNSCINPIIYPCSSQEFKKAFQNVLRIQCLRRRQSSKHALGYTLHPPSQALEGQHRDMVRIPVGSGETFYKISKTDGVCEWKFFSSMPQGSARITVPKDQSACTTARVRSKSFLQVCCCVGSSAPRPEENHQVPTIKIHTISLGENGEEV
The experiment in a line: Isolated tissue functional assay, epididymal vas deferens (phenylephrine induced contraction). As to the method:
(§1) The functional in vitro activity of Compound 7 was characterized in several pharmacologically defined α1 adrenoceptor subtype isolated tissue assays (Aboud et al., 1993). (Rat epididymal vas deferens was used to determine α1A functional responses, spleen was used for α1B responses, and thoracic aorta was used for α1D responses.) Experiments were carried out according to the method of Deng et al., 1996, with minor buffer and tissue setup tension modifications. Krebs additionally contained 0.1 μM desipramine and 10 μM corticosterone to block neuronal and extra neuronal uptake, respectively, and 0.3 μM idazoxan to eliminate α2 mediated responses. Aorta and vas deferens strips were set at 0.5 g resting tension, and the splenic preparations were tensioned to 1 g. All preparations were equilibrated for 1 hr before the addition of drugs.
(§2) Additionally, its antagonist potency was determined by its ability to antagonize phenylephrine (PE) induced contraction in each of these preparations. The degree of shift of the PE agonist dose response-curve in the presence of Compound 7 was measured and pKB values were calculated (mean±s.e.m.).

The next experiment has as its target T2, α1D adrenergic receptor (Rattus norvegicus, UniProt P23944).
T2 construct: from tissue; host or cells: rat thoracic aorta strips
T2 sequence (P23944 1-561): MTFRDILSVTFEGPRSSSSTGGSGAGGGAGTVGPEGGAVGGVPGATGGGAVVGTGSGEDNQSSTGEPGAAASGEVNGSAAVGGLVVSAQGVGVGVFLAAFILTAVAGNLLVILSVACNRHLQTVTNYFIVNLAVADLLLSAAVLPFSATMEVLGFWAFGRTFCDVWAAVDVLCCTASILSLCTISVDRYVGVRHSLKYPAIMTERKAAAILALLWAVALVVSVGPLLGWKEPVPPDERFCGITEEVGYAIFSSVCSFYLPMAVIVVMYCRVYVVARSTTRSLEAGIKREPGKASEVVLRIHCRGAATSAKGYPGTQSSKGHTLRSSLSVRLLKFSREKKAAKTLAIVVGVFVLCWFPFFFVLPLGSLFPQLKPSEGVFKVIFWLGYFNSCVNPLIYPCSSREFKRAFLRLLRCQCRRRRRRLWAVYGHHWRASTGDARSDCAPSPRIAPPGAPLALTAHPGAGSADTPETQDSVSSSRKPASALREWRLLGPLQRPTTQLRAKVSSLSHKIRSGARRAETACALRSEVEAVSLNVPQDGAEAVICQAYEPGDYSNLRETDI
Put plainly: Isolated tissue functional assay, thoracic aorta (phenylephrine induced contraction). As to the method:
as §1, §2

Experiment [2] deals with T3, human 5-HT1Dα (5-HT1D) receptor (Homo sapiens, UniProt P28221).
T3 construct: expressed in transfected cells; host or cells: LM(tk-) clonal cell line Ltk-8-30-84 (ATCC CRL 10421)
T3 sequence (P28221 whole entry): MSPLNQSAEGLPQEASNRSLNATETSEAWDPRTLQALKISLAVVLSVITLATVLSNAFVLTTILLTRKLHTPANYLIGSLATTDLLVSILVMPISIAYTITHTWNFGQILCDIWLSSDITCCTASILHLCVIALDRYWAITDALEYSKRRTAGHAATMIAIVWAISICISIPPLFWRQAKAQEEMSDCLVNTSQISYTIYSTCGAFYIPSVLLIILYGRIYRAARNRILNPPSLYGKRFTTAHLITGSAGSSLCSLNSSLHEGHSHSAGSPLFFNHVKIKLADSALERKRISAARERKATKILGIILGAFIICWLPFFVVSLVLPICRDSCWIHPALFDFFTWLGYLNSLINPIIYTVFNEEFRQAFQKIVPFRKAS
The experiment in a line: Competition binding ([3H]serotonin) at cloned human 5-HT1Dα (5-HT1D) receptor. The note with it: read-out: binding affinity (pKi) 5-HT1Dα (5-HT1D) (converted). As to the method: (§3) 5-HT1Dα (5-HT1D) and 5-HT1Dβ (5-HT1B) receptors: The cell lysates of the LM(tk-) clonal cell line stably transfected with the genes encoding each of these 5-HT receptor subtypes were prepared as described above. The cell line for the 5-HT1Dα (5-HT1D) receptor, designated as Ltk-8-30-84, was deposited on Apr. 17, 1990, and accorded ATCC Accession No. CRL 10421. The cell line for the 5-HT1Dβ (5-HT1B) receptor, designated as Ltk-11, was deposited on Apr. 17, 1990, and accorded ATCC Accession No. CRL 10422. These preparations were suspended in 50 mM Tris-HCl buffer (pH 7.4 at 37° C.) containing 10 mM MgCl2, 0.2 mM EDTA, 10 μM pargyline, and 0.1% ascorbate. […] Nonspecific binding was determined in the presence of 10 μM serotonin. The bound radioligand was separated by filtration through GF/B filters using a cell harvester.

The target in experiment [3] is T4, human 5-HT1Dβ (5-HT1B) receptor (Homo sapiens, UniProt P28222).
T4 construct: expressed in transfected cells; host or cells: LM(tk-) clonal cell line Ltk-11 (ATCC CRL 10422)
T4 sequence (P28222 whole entry): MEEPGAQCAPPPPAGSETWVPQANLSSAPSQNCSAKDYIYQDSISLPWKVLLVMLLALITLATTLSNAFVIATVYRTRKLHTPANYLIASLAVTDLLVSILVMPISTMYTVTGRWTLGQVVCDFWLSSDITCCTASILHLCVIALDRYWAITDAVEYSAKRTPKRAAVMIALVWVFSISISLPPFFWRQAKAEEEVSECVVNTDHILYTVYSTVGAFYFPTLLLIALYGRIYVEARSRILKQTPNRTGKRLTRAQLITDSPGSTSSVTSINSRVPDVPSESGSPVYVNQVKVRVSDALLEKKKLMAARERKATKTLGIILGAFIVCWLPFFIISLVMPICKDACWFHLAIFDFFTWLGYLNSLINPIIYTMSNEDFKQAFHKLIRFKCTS
Put plainly: Competition binding ([3H]serotonin) at cloned human 5-HT1Dβ (5-HT1B) receptor. As to conditions: read-out: binding affinity (pKi) 5-HT1Dβ (5-HT1B) (converted). As to the method: as §3

Turning to `O=C1CC2(CCCC2)CC(=O)N1CCN1CCN(c2cc(F)c(F)cc2F)CC1` [Compound 7, 8-{2-[4-(2,4,5-Trifluorophenyl)piperazin-1-yl]ethyl}-8-azaspiro[4.5]decane-7,9-dione], the “reversal of the blood pressure effect by WAY 100635” value in experiment [1] (5-HT1A-selective antagonist WAY 100635 1 mg/kg given after plateau) is reported as “not reversed”. In experiment [1] (urethane-anesthetized rats, increasing i.v. doses at 10 min intervals), the “effect on systolic, diastolic and mean blood pressure” value is reported as “reduces blood pressure in anesthetized rat, although to a lesser extent than BMY 7378; also recorded: only a minor reduction in blood pressure”. For the same compound, the agonist activity result on α1A adrenoceptor (concentrations up to 10 μM, rat vas deferens (α1A model)) was “failed to produce agonist activity”; on α1D adrenergic receptor (concentrations up to 10 μM, rat thoracic aorta (α1D model)), “failed to produce agonist activity”. Moreover, the Kb on α1A adrenoceptor (rat epididymal vas deferens (α1A), mean±s.e.m., read-out: pKB (antagonism of phenylephrine induced contraction) (converted)) was 6310 nM; on α1D adrenergic receptor (rat thoracic aorta (α1D), mean±s.e.m., read-out: pKB (antagonism of phenylephrine induced contraction) (converted)), 3.16 nM. Moreover, the “fold less potent than in the aorta” value at α1A adrenoceptor (vas deferens versus aorta) is on record as “approximately 2000 fold”. The values for the Ki in experiment [2] and in experiment [3] were 794 nM and 5010 nM, respectively.
